Test results taken from US7384758B2, “Bioluminescent protease assay with modified aminoluciferin or derivatives thereof” (Promeaga Corporation, priority 2002, dated 2008).
Values joined by “and” are separate entries in the source; they are usually repeats but may differ in a detail not shown here. Equal values may be shown once.

Key:
trypsin = target: T1, trypsin (Bos taurus, UniProt P00760); experiment: trypsin titration, homogeneous luminescent vs fluorescent substrate assay (Examples 1 and 2); format: biochemical; conditions: for limit of detection (trypsin): 3 S.D. above background noise, amount of trypsin
T1 construct: gene PRSS1
T1 sequence (P00760 24-246): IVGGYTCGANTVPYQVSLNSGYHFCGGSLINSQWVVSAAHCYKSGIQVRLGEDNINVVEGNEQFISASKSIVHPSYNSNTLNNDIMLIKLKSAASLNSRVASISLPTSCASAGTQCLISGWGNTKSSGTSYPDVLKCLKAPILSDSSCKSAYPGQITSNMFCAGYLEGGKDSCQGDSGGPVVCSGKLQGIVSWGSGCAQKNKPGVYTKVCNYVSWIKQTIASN
Method: To compare the limit of detection for a luminescence-based and a fluorescence-based assay for trypsin, two substrates, Lys-aminoluciferin (Cbz-modified lysinyl-aminoluciferin) and Arg-Rho-110 (Molecular Probes, Catalog no. R6501), were used. Substrate was resuspended in 100 mM Hepes, pH 7.9, at a concentration of 10 mM and stored at −20° C. The thawed Lys-aminoluciferin substrate, thermostable luciferase (5.2 mg/ml stock), and ATP (0.1 M stock) were diluted in buffer (50 mM HEPES, pH 7.9, 10 mM MgSO4, 1 mM EDTA, pH 8.2 and 0.1% prionex) to make a stock that was 10× the final concentration. The 10× stock was 200 μM Lys-aminoluciferin, 200 μg/ml luciferase, and 2.0 mM ATP. This 10× stock was incubated for at least 90 minutes to eliminate any free aminoluciferin.
Trypsin was prepared for titration as follows: 1 μg/μl stock solution was diluted to 10 ng/50 μl in the same buffer as above (50 mM HEPES, pH 7.9, 10 mM MgSO4, 1 mM EDTA, pH 8.2 and 0.1% prionex). This […] trypsin solution was serially diluted 5 fold to 2 ng, 0.4 ng, 0.08 ng, 0.016 ng, 3.2 pg, 0.64 pg, 0.128 pg, 0.0256 pg and 0.005 pg. The trypsin dilutions were added to two 96-well plates in replicates of 8 at 50 μl per well. Pipette tips were changed for each row to avoid enzyme carryover. Two columns (16 wells) contained buffer only without trypsin.
One of the two plates of the trypsin dilutions was then used to test the Lys-aminoluciferin substrate (FIG. 3). Samples were tested in quadruplicate. The 10× substrate/luciferase/ATP mix was further diluted 5 fold in the above-described buffer to make a 2× stock. 50 μl of this 2× stock was added to each well containing 50 μl of the trypsin titration such that the final 100 μl volume contained 20 μM Lys-aminoluciferin, 200 μM ATP, and 20 μg/ml of thermostable luciferase in buffer (50 mM HEPES, pH 7.9, 10 mM MgSO4, 1 mM EDTA, pH 8.2 and 0.1% prionex). The substrate mix was also added to 12 of the 16 wells containing buffer only without trypsin. The remaining 4 wells were left with buffer only (no substrate mix). This plate was incubated at room temperature and read by luminometer at 45 minutes and 3 hours after adding the substrate mix to the trypsin.
The second plate of trypsin dilutions was used to test the Arg-Rho-110 substrate (FIG. 4). The Arg-Rho-110 substrate was tested at final concentrations of 10 μM and 2.5 μM. 2× stocks of 20 μM and 5 μM were prepared by diluting the substrate in 50 mM HEPES, pH 7.9, 10 mM MgSO4, 1 mM EDTA, pH 8.2 and 0.1% prionex. To each well of the plate containing 50 μl of the trypsin titration was added 50 μl of either the 20 μM or 5 μM 2× stocks of Arg-Rho-110 substrate. The 20 μM stock was added to the first four rows (final concentration of 10 μM in rows A-D) and the 5 μM stock was added to the second four rows (final concentration of 2.5 μM in rows E-H). The substrate mix was also added to 12 of the 16 wells containing buffer only without trypsin. The remaining 4 wells were left with buffer only (no substrate mix). The Arg-Rho-110 plate was incubated at room temperature in the dark for 4.5 hours and read on a fluorimeter.
The signal to noise was calculated as signal-background (no trypsin)/S.D. of background. The limit of detection was determined as 3 S.D. above background noise.
To determine the effect of an overnight pre-incubation of substrate with luciferase, ATP and buffer prior to adding trypsin, a substrate/luciferase/ATP mix was incubated overnight in the dark, at room temperature. […]

[1] = system: thermostable firefly luciferase; experiment: luminescent reaction with luciferin or aminoluciferin as luciferase substrate (FIG. 1); format: biochemical; conditions: substrate for thermostable firefly luciferase, FIG. 1
Excerpt: FIG. 1 depicts relative light units (RLU) for luciferin or aminoluciferin as a substrate for a thermostable firefly luciferase in a luminescent reaction.

caspase 3 = target: T2, caspase 3 (Homo sapiens, UniProt P42574); experiment: caspase titration, luminescent vs fluorescent substrate in Apo-ONE buffer (Example 3); format: biochemical
T2 construct: approximately 10 mU/ng protein with >75% in active conformation; purchased Upstate Biotech 14-264
T2 sequence (P42574 29-175 limits assumed): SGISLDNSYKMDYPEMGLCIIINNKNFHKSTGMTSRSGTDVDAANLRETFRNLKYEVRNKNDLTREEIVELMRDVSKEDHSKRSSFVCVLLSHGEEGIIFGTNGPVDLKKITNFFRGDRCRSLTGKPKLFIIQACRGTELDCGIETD
T2 sequence (P42574 176-277 limits assumed): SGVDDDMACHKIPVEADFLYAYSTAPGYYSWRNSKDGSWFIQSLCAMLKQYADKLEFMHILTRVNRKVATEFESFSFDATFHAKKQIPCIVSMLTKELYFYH
Method: To conduct a direct comparison between luminescent and fluorescent substrates for caspase 3, DEVD-Rho-110 and DEVD-aminoluciferin were employed. The DEVD-aminoluciferin substrate/luciferase/ATP mixture was prepared first and preincubated prior to the enzyme assay to eliminate free aminoluciferin. To 1.25 ml of Apo-ONE™ buffer (Promega) was added 10 μl of DEVD-luciferin (10 mM stock), 10 μl of ATP (0.1 M stock), 50 μl of MgSO4 (1 M stock), 50 μl of prionex (10% stock), and 48 μl of luciferase (5.2 mg/ml stock). The volume was brought up to 2.5 ml with nanopure, autoclaved water to make a 2× stock of 40 μM DEVD-luciferin, 400 μM ATP, 0.2% prionex, and 100 μg/ml luciferase. This stock was incubated overnight at room temperature.
Caspase (Upstate Biotech, Cat. No.14-264; approximately 10 mU/ng protein with >75% in active conformation) was diluted 550 fold in a 50/50 mixture of Apo-ONE™ buffer/RPMI-1640 culture media, from 1 U/μl to 1.8 mU/μl. 50 μl of Apo-One™ buffer/RPMI-1640 media was added to each well in two 96-well plates. Then, 5.5 μl of the caspase stock was added to the 50 μL of Apo-One™ buffer/RPMI-1640 media for a concentration of about 10 mU/50 μl. Ten serial dilutions of 10 fold each were carried out in the wells by serially transferring 5.5 μl of caspase solution into the 50 μl of the buffer/media mix. The final caspase concentrations were 10 mU, 1 mU, 0.1 mU, 0.01 mU, 0.001 mU, 0.1 μU, 0.01 μU, 0.001 μU, 0.1 nU, and 0.01 nU/well. The last two columns were buffer/media only without caspase.
To one plate of caspase dilutions, 50 μl of the DEVD-aminoluciferin substrate mixture was added to each well for final concentrations of 20 μM DEVD-aminoluciferin, 200 μM ATP, 10 mM MgSO4, 0.1% prionex, and 50 μg/ml luciferase. […] Readings were taken for each plate at 1 hour, 3 hours, and 5 hours on a luminometer and fluorimeter, respectively.
Signal to noise was calculated as above and the limit of detection was determined as 3 S.D. above the background noise.

Jurkat cells = experiment: caspase activity in Jurkat cells induced to undergo apoptosis with anti-FAS antibody (Example 4); format: cell-based; conditions: for sensitivity greater than the Arg-Rho110: Jurkat cells, FIG. 11
Method: The DEVD-aminoluciferin caspase substrate and the DEVD-Rho-110 caspase substrate were used to measure caspase activity in Jurkat cells induced to undergo apoptosis with anti-FAS antibody. DEVD-luciferin and luciferase were prepared for pre-incubation prior to use in the assay. Substrate, ATP, MgSO4, prionex and luciferase were diluted from the same stock as in Example 3 to the same 2× concentration, except that the components were diluted in autoclaved water rather than Apo-ONE™. This mixture was incubated overnight in the dark (covered in foil).
The next day, Jurkat cells, grown in RPMI-1640 media with 10% Fetal Bovine Serum (FBS) to a density of 5×10^5 cells/ml, were treated with anti-FAS antibody. To one vial of 8 ml of media was added 1.6 μl of antibody (1:5000 dilution); a second vial contained 8 ml of media and no antibody. Cells were incubated for 4 hours at 37° C., in 5% CO2 Cells were then centrifuged and resuspended in 12.5 ml of RPMI-1640 to a density of 3.2×10^5 cells/ml, then diluted 1:1 with Apo-ONE™ buffer for 1.6×10^5 cells/ml, or 8,000 per 50 μl.
Two 96-well plates were prepared such that on each, the first column was left empty, and 50 μl of RPMI-1640:Apo-ONE™ solution was placed in each of the remaining wells. To the first four rows of each plate, […] of the “induced” cell solution (8,000 cells) was added and the cells then serially diluted from 8,000 cells/well, to 4,000 cells/well and so on, down to 7.8 cells/well. The twelfth column was left without cells and with only 50 μl of RPMI-1640:Apo-ONE™ solution. […]
Signal to noise was calculated (signal minus background (no cell control)/S.D. of background) and the limit of detection was determined as 3 S.D. above the background noise.
One of the two plates was treated with 50 μl of either DEVD-aminoluciferin/luciferase mix or with DEVD-Rho-110/Apo-ONE™ (Promega G778B and G777B). Each plate was mixed on a plate shaker for 30 seconds then incubated at room temperature and read on either a Dynex luminometer or Fluoroskan plate reader at 1 hour, 2 hours, 4 hours and one day later.

N=C(N)NCCCC(NC(=O)OCc1ccccc1)C(=O)Nc1ccc2c(c1)Oc1cc(NC(=O)C(CCCNC(=N)N)NC(=O)OCc3ccccc3)ccc1C21OC(=O)c2ccccc21 (stereo not drawn) [Arg-Rho-110, reference compound]
limit of detection (trypsin) (trypsin): 12 to 30 pg | limit of detection (trypsin) (trypsin; listed as arginine2-rhodamine-110): 12 to 30 pg

O=C(O)[C@H]1CSC(c2nc3ccc(O)cc3s2)=N1 [luciferin]
Km [1]: ~0.6 µM

Cbz-modified lysinyl-aminoluciferin [Lys-aminoluciferin]
limit of detection (trypsin) (trypsin): 3.0 pg | sensitivity greater than Arg-Rho-110 (trypsin; depending on the time of the reading, FIG. 9): 3-10 fold and 3 to 10 fold | less enzyme detected / more sensitive than fluorescence-based assay (trypsin; luminescent vs rhodamine-110 trypsin substrate): 4-10 times

N-(Z-Asp-Glu-Val-Asp)-aminoluciferin [DEVD-aminoluciferin]
more sensitive than DEVD-Rho-110 (caspase 3; FIG. 10, Example 3): 10-100 times | sensitivity greater than the Arg-Rho110 (caspase 3; depending on the time of the readings, FIG. 10): 50-300 fold | limit of detection (purified caspase) (caspase 3; substrate for caspase 3 and 7, purified caspase, 3 S.D. above background): 0.2 to 0.5 μU | sensitivity greater than the Arg-Rho110 (Jurkat cells; 1 hour time point): 10 fold | sensitivity greater than the Arg-Rho110 (Jurkat cells; at 4 hours): about 2 fold | limit of detection of caspase expressing cells (Jurkat cells; at 1 hour): 15 cells
